Reference: EP2077855B1, “THERAPEUTIC USE OF GBA2” (Yildiz, Dr. med., Yildiz, priority 2006, dated 2008)
“And” between values parts separate entries of the source, which are not always exact repeats. Identical values can stand only once.

Legend:
[1] = target: T1, recombinant GBA2 produced in insect cells (His-tagged isolated enzyme) (Homo sapiens, UniProt Q9HCG7); test: Glucosidase activity of recombinant GBA2 produced in insect cells upon addition of test compounds; assay type: biochemical; set-up: enzyme activity: unit not given here; conditions: insect cell produced recombinant GBA2, incubation time 15; for mean value: mean counts
T1 construct: His tag; made in house; host or cells: insect cells
T1 sequence (Q9HCG7 1-927): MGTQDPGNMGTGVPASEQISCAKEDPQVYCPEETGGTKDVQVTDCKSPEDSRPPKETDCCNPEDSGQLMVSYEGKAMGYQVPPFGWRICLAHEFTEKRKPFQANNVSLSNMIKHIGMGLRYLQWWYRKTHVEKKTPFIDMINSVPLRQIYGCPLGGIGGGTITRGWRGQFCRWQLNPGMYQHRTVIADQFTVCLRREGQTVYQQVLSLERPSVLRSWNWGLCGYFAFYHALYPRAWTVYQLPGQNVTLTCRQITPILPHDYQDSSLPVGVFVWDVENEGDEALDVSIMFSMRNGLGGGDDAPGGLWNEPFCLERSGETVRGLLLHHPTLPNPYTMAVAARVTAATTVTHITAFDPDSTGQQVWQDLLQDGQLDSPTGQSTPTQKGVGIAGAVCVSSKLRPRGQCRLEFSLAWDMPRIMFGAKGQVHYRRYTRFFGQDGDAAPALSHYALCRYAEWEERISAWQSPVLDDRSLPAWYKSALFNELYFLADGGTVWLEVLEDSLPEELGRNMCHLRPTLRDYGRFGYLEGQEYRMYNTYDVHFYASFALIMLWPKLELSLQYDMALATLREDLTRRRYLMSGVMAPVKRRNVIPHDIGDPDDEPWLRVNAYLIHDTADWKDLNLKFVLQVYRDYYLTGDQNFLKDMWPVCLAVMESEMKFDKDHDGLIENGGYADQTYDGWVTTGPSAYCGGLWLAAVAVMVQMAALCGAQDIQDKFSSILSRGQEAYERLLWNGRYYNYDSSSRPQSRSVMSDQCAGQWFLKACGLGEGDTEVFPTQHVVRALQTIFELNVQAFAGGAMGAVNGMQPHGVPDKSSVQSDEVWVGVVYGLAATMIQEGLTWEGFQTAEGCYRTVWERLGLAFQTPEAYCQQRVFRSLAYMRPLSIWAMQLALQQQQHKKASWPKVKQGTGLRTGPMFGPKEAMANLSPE
Description: (§1) Following the method for measurement of glucosidase activity described in ((Matern, H. et al., J. Biol. Chem. 272:11,261-11,267 (1997), the effect of several test compounds (like bivalent cations and detergents) on the glucosidase activity of recombinant GBA2 produced in insect cells (His-tagged isolated enzyme) and of human liver microsomes was compared. The glucosidase activity of human liver was tested in a microsomal preparation. The tested compounds were: cations including nickel, zinc, cobalt, manganese, calcium, magnesium and barium; detergents including Chaps, Triton X100, taurocholate, Brij58; and phospholipids including lyso-phosphatidylcholine, sphingomyelin, phosphatidylcholine, phosphatidyl-serine, phosphatidylethanolamine and phosphatidylinositol. The enzyme activity results for the recombinant GBA2 were similar or even better than the results for human liver microsomal GBA2 activity. Representative results are summarized in Table 5; the data for the remaining test compounds is not shown. Result: Expression of GBA2 in insect cells leads to recombinant GBA2 whose glucosidase activity is similar to or even higher than the glucosidase activity of human liver microsomes. Table 5: Glucosidase activity of microsomal human liver and GBA2 from insect cells upon addition of sphingomyelin (A, B) and cobalt (C, D). The microsomal preparations were diluted 1:8 with Chaps before use. Measurements were performed in duplicate or triplicate.

[2] = target: T2, human liver microsomal GBA2 activity (Homo sapiens, UniProt Q9HCG7); test: Glucosidase activity of human liver microsomes upon addition of test compounds; assay type: biochemical; set-up: enzyme activity: unit not given here; conditions: human liver microsomes diluted 1:8 with Chaps, incubation time 15; for mean value: mean counts
T2 construct: from tissue; host or cells: human liver microsomes
T2 sequence (Q9HCG7 1-927): T1 sequence (Q9HCG7 1-927)
Description: as §1

[Co+2] [cobalt]
% of control ([1]; cobalt 0,01mM): 93%
counts ([1]; cobalt 0,01mM): 157,63 and 157,78
enzyme activity ([1]; cobalt 0,01mM): 0,1288
% of control ([1]; cobalt 0,1mM): 115%
counts ([1]; cobalt 0,1mM): 161,62 and 167,45
enzyme activity ([1]; cobalt 0,1mM): 0,1604
% of control ([1]; cobalt 0,05mM): 117%
counts ([1]; cobalt 0,05mM): 167,53 and 152,62 and 174,62
enzyme activity ([1]; cobalt 0,05mM): 0,1622
% of control ([1]; cobalt 0,5mM): 273%
counts ([1]; cobalt 0,5mM): 206,30 and 217,85
enzyme activity ([1]; cobalt 0,5mM): 0,3802
% of control ([1]; cobalt 1mM): 360%
counts ([1]; cobalt 1mM): 237,74 and 260,51 and 216,07
enzyme activity ([1]; cobalt 1mM): 0,5005
% of control ([1]; cobalt 5mM): 97%
counts ([1]; cobalt 5mM): 208,68 and 319,94
enzyme activity ([1]; cobalt 5mM): 0,6216
mean value ([1]; cobalt 0,01mM): 157,71
mean value ([1]; cobalt 0,1mM): 164,54
mean value ([1]; cobalt 0,05mM): 164,92
mean value ([1]; cobalt 0,5mM): 212,08
mean value ([1]; cobalt 1mM): 238,11
mean value ([1]; cobalt 5mM): 264,31
% of control ([2]; cobalt 0,01mM): 87%
counts ([2]; cobalt 0,01mM): 180,77 and 193,04 and 191,08
enzyme activity ([2]; cobalt 0,01mM): 1,0961
% of control ([2]; cobalt 0,05mM): 140%
counts ([2]; cobalt 0,05mM): 223,91 and 223,75 and 225,71
enzyme activity ([2]; cobalt 0,05mM): 1,7647
% of control ([2]; cobalt 0,001mM): 81%
enzyme activity ([2]; cobalt 0,001mM): 1,0240
% of control ([2]; cobalt 1mM): 155%
counts ([2]; cobalt 1mM): 234,69 and 233,72 and 236,26
enzyme activity ([2]; cobalt 1mM): 1,9576
% of control ([2]; cobalt 0,005mM): 84%
counts ([2]; cobalt 0,005mM): 192,98 and 191,68 and 174,52
enzyme activity ([2]; cobalt 0,005mM): 1,0610
% of control ([2]; cobalt 5mM): 163%
counts ([2]; cobalt 5mM): 233,59 and 235,10 and 251,13
enzyme activity ([2]; cobalt 5mM): 2,0510
mean value ([2]; cobalt 0,01mM): 188,30
mean value ([2]; cobalt 0,05mM): 224,46
mean value ([2]; cobalt 0,001mM): 84,391
mean value ([2]; cobalt 1mM): 234,89
mean value ([2]; cobalt 0,005mM): 186,39
mean value ([2]; cobalt 5mM): 239,941

sphingomyelin
mean value ([1]; sphingomyelin 0,3mM): 674,56
mean value ([1]; sphingomyelin 0,15mM): 591,95
mean value ([1]; sphingomyelin 0,75mM): 537,54
mean value ([1]; sphingomyelin 3mM): 652,37
mean value ([1]; sphingomyelin 6mM): 493,49
mean value ([1]; sphingomyelin 12mM): 510,93
mean value ([1]; sphingomyelin 1,5mM): 643,44
% of control ([1]; sphingomyelin 0,3mM): 104%
counts ([1]; sphingomyelin 0,3mM): 675,57 and 673,54
enzyme activity ([1]; sphingomyelin 0,3mM): 2,5788
% of control ([1]; sphingomyelin 0,15mM): 89%
counts ([1]; sphingomyelin 0,15mM): 579,66 and 604,24
enzyme activity ([1]; sphingomyelin 0,15mM): 2,1969
% of control ([1]; sphingomyelin 0,75mM): 79%
counts ([1]; sphingomyelin 0,75mM): 541,76 and 533,32
enzyme activity ([1]; sphingomyelin 0,75mM): 1,9454
% of control ([1]; sphingomyelin 3mM): 100%
counts ([1]; sphingomyelin 3mM): 699,42 and 605,31
enzyme activity ([1]; sphingomyelin 3mM): 2,4762
% of control ([1]; sphingomyelin 6mM): 70%
counts ([1]; sphingomyelin 6mM): 473,49 and 513,48
enzyme activity ([1]; sphingomyelin 6mM): 1,7418
% of control ([1]; sphingomyelin 12mM): 74%
counts ([1]; sphingomyelin 12mM): 489,65 and 532,21
enzyme activity ([1]; sphingomyelin 12mM): 1,8224
% of control ([1]; sphingomyelin 1,5mM): 98%
counts ([1]; sphingomyelin 1,5mM): 630,13 and 656,75
enzyme activity ([1]; sphingomyelin 1,5mM): 2,4349
mean value ([2]; sphingomyelin 0,3mM): 195,30
mean value ([2]; sphingomyelin 0,15mM): 206,72
mean value ([2]; sphingomyelin 0,75mM): 206,21
mean value ([2]; sphingomyelin 3mM): 214,01
mean value ([2]; sphingomyelin 6mM): 208,40
mean value ([2]; sphingomyelin 12mM): 195,24
mean value ([2]; sphingomyelin 1,5mM): 201,66
% of control ([2]; sphingomyelin 0,3mM): 68%
counts ([2]; sphingomyelin 0,3mM): 187,68 and 202,92
enzyme activity ([2]; sphingomyelin 0,3mM): 1,4089
% of control ([2]; sphingomyelin 0,15mM): 78%
counts ([2]; sphingomyelin 0,15mM): 215,51 and 197,93
enzyme activity ([2]; sphingomyelin 0,15mM): 1,6200
% of control ([2]; sphingomyelin 0,75mM): 78%
counts ([2]; sphingomyelin 0,75mM): 206,90 and 205,52
enzyme activity ([2]; sphingomyelin 0,75mM): 1,6106
% of control ([2]; sphingomyelin 3mM): 85%
counts ([2]; sphingomyelin 3mM): 225,57 and 202,45
enzyme activity ([2]; sphingomyelin 3mM): 1,7548
% of control ([2]; sphingomyelin 6mM): 80%
counts ([2]; sphingomyelin 6mM): 207,54 and 209,26
enzyme activity ([2]; sphingomyelin 6mM): 1,6511
% of control ([2]; sphingomyelin 12mM): 68%
counts ([2]; sphingomyelin 12mM): 189,25 and 201,23
enzyme activity ([2]; sphingomyelin 12mM): 1,4077
% of control ([2]; sphingomyelin 1,5mM): 74%
counts ([2]; sphingomyelin 1,5mM): 207,84 and 195,48
enzyme activity ([2]; sphingomyelin 1,5mM): 1,5264
